The values below come from patent publication EP4729516A1, “S[…] DERIVATIVE, INTERMEDIATE, PREPARATION METHOD THEREFOR AND USE THEREOF” (Jiangsu NHWA Pharmaceutical Co., Ltd, priority 2023, dated 2024).

Molecules are shown by their SMILES. Where two headings read alike, the source gives them in different places.

One assay concerns the target T1, α2A receptor (Homo sapiens, UniProt P08913).
T1 construct: expressed in transfected cells; host or cells: CHO-K1
T1 sequence (P08913 1-465): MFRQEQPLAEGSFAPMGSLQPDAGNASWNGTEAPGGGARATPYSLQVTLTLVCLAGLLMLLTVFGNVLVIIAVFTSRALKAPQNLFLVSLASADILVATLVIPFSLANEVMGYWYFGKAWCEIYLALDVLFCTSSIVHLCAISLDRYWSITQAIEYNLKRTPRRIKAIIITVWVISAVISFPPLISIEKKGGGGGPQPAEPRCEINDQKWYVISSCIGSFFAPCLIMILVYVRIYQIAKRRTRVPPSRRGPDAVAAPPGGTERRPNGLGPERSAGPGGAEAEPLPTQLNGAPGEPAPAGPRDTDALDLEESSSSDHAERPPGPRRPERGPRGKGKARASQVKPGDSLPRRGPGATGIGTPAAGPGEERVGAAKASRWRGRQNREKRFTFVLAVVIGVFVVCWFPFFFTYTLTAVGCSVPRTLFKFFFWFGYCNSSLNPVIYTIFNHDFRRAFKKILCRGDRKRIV
Kind of assay: Competitive receptor binding assay, α2A (3H-RX821002, CHO-K1-α2A membranes). As to conditions: for affinity for the α2A receptor / affinity α1A/2A: in words, compared with dexmedetomidine hydrochloride. The method, then: Standard buffer (used for preparing α1A, α2A, α2B, and α2C receptor membranes): 146 mg of EDTA was weighed out, a 50 mM Tris-HCl buffer was added to reach a total volume of 1000 mL, and the pH was adjusted to 7.7 to make a final concentration of 0.5 mM for EDTA.
Test sample (compound): The theoretical sample weighing amount was calculated according to the designed concentration and the required volume. Generally, the test sample was dissolved in DMSO to an initial preparation dose of 5.0 × 10^-3 M, and the solution was sequentially diluted with DMSO to 5.0 × 10^-4 M-5.0 × 10^-9 M; the diluted DMSO solution was diluted with Buffer to a working concentration of 5.0 × 10^-5 M-5.0 × 10^-11 M; and the final concentration of DMSO in the working solution was 1% (the final concentration of DMSO in the reaction system was 0.2%). The test sample was prepared and then stored at 4 °C. After the test was completed, the test sample was discarded.
CHO-K1-α1A, CHO-K1-α2A, CHO-K1-α2B, and CHO-K1-α2C cells were taken out of a refrigerator at -80 °C, thawed naturally, and centrifuged at 2000 g at 4 °C for 10 min. The supernatant was discarded, and the pellet was collected. A buffer was added to the pellet, and the mixture was homogenized for 20-30 s and then centrifuged at 48000 g at 4 °C for 25 min. The supernatant was discarded, and the buffer was added again. The mixture was homogenized for 20-30 s and centrifuged at 48000 g at 4 °C for 25 min. The supernatant was discarded, and the pellet was collected and stored at -80 °C.
Table 1. Experimental conditions for radioactive binding
Step 1: 50 µL of a vehicle (1% DMSO) was added to a total binding tube (TB), 50 µL of a non-labeled substance (with a final concentration of 1.0 × 10^-5 M) was added to a non-specific binding tube (NB), and 50 µL of a test compound was added to each test compound tube (CB).
Step 2: 100 µL of a buffer was added to each reaction tube.
Step 3: The prepared membrane was suspended in a buffer to give a membrane suspension with a corresponding concentration for later use.
Step 4: 50 µL of the corresponding radioligand was added to each reaction tube.
Step 5: 50 µL of the membrane suspension was added to each reaction tube.
Step 6: Each reaction tube was incubated according to the incubation conditions. After the reaction was completed, the binding ligands were rapidly filtered under reduced pressure. The UniFilter GF/C plate was saturated with a 0.5% PEI solution 1 h in advance, fully washed with an ice-cold Tris-HCl buffer, filtered under vacuum, then placed into a thermostatic dryer, and dried for 30 min. The filter plate was taken out, and a MICROSCINT PS scintillation solution was added at 40 µL/well.
Step 7: The scintillation vial was put into a liquid scintillation counter for counting.
Based on the effect values of the compound samples at different concentration test points, the GraphPad Prism software was used to fit the action curves of the compound samples to the receptors, and the Ki values were calculated.

The next assay has as its target T2, α2A adrenoceptor (Homo sapiens, UniProt P08913).
T2 construct: host or cells: 293
T2 sequence (P08913 1-465): T1 sequence (P08913 1-465)
In words: Agonist screening mode cAMP assay, 293-α2A cells. The format is cell-based. The following applies: for agonistic activity on the α2A receptor / agonistic activity α1A/2A: in words, compared with dexmedetomidine hydrochloride; for Function α1A/2A: ratio of α1A to α2A EC50. The protocol:
The cells were centrifuged at 1000 rpm for 5 min, and the supernatant was discarded. 3 mL of PBS was added, and the mixture was gently pipetted to be mixed well. The cells were centrifuged again at 1000 rpm for 5 min, and the supernatant was discarded. The cells were resuspended in the 1× Stimulation buffer and counted using a Countstar cell counter, and the cell density was adjusted to 4 × 10^5 cells/mL for later use. • (4) Cell addition: The cell suspension was added to assay plates at 5 µL/well (i.e., about 2000 cells/well). • (5) Compound addition: The compound diluted with the Stimulation buffer was added to the assay plates described above at 4 µL/well. • (6) Reaction and incubation: After gentle shaking, the assay plates were incubated at 37 °C for 20 min. • (7) Agonist Forskolin addition: A 10× adenylate cyclase agonist (Forskolin with a final concentration of 1 µM) solution was added at 1 µL/well. • (8) Reaction and incubation: After gentle shaking, the assay plates were incubated at 37 °C for 45 min. • (9) Detection reagent addition: cAMP-cryptate and Anti-cAMP-d2 were separately diluted according to a ratio of 1:20 with Lysis & detection buffer in the Cisbio cAMP-Gi detection kit, and the diluted cAMP-cryptate and Anti-cAMP-d2 described above were separately added to the assay plate at 5 µL/well. After shaking, the assay plates were left to stand at room temperature for 60 min. • (10) Experimental readings: The plate was read on Envision, readings from the 665 nm and 615 nm channels were taken, and the ratio of 665 nm/615 nm readings was calculated.
(cAMP levels reflect the balance of adenylyl cyclase and phosphodiesterase activity.)

Where [1] appears, read: Ki, CHO-K1-α2A membranes, 3H-RX821002, read-out: Binding α2A.
Where [2] appears, read: EC50, cAMP-Gi, 293-α2A cells, Forskolin 1 µM, read-out: Function α2A.

Turning to `c1cc2c(c(Cc3c[nH]cn3)c1)SCCC2` [Compound 1, 4-[1-(Thiochroman-8-yl)methyl]-1H-imidazole], at α2A receptor (setting [1]), the Ki was found to be 15.6 nM. Moreover, at α2A receptor, the “affinity for the α2A receptor” value is given as “comparable”. In addition, the EC50 at α2A adrenoceptor (setting [2]) is 1.28 nM. Moreover, on α2A adrenoceptor, the “agonistic activity on the α2A receptor” value is recorded as “comparable” and the “Function α1A/2A” value was found to be 2.5.
`CC(c1c[nH]cn1)c1cccc2c1SCCC2` (centres unmarked) [Compound 2, 4-(1-[Thiochroman-8-yl)ethyl]-1H-imidazole]: the Ki at α2A receptor (setting [1]) was 7.72 nM. Moreover, the “affinity for the α2A receptor” value on α2A receptor was “superior”. Also, the EC50 on α2A adrenoceptor (setting [2]) turned out to be 0.53 nM. Besides, on α2A adrenoceptor, the “agonistic activity on the α2A receptor” value is recorded as “superior”, the “agonistic activity α1A/2A” value was “comparable” and the “Function α1A/2A” value is on record as 10.1.
Regarding `CC(c1c[nH]cn1)c1cccc2c1CC2` (centres unmarked) [Compound 3, 4-(1-(Bicyclo[4.2.0]octa-1(6),2,4-trien-2-yl)ethyl)-1H-imidazole], on α2A receptor, the Ki amounted to 29.1 nM, the “affinity for the α2A receptor” value is given as “comparable” and the “affinity α1A/2A” value is “comparable”. Moreover, at α2A adrenoceptor, the EC50 turned out to be 3.12 nM, the “agonistic activity on the α2A receptor” value is on record as “comparable”, the “agonistic activity α1A/2A” value is “superior” and the “Function α1A/2A” value is 18.3.
Take `CC(c1c[nH]cn1)c1cccc2c1CCCC2` (centres unmarked) [Compound 4, 4-(1-(5,6,7,8-Tetrahydronaphthalen-1-yl)ethyl)-1H-imidazole]: on α2A receptor, the Ki was 28.7 nM, the “affinity for the α2A receptor” value is listed as “comparable” and the “affinity α1A/2A” value is “superior”. Also, at α2A adrenoceptor, the EC50 came to 3.57 nM, the “agonistic activity on the α2A receptor” value is given as “comparable”, the “agonistic activity α1A/2A” value is reported as “comparable” and the “Function α1A/2A” value was determined as 7.0.
Regarding `CC(c1c[nH]cn1)c1cccc2c1C=CC2` (centres unmarked) [Compound 8, 4-[1-(1H-Inden-4-yl)ethyl]-1H-imidazole], on α2A receptor, the Ki turned out to be 10.8 nM, the “affinity for the α2A receptor” value was “comparable” and the “affinity α1A/2A” value was “superior”. In addition, on α2A adrenoceptor, the EC50 stood at 0.91 nM, the “agonistic activity on the α2A receptor” value is on record as “superior”, the “agonistic activity α1A/2A” value is reported as “superior” and the “Function α1A/2A” value was determined as 23.9.
`CC(c1c[nH]cn1)c1cccc2c1OCC2` (centres unmarked) [Compound 10, 4-[1-(2,3-Dihydrobenzofuran-7-yl)ethyl]-1H-imidazole]: on α2A receptor, the Ki amounted to 2.4 nM, the “affinity for the α2A receptor” value was “superior” and the “affinity α1A/2A” value is “superior”. Further, on α2A adrenoceptor, the EC50 was found to be 4.63 nM, the “agonistic activity on the α2A receptor” value was “comparable”, the “agonistic activity α1A/2A” value is recorded as “comparable” and the “Function α1A/2A” value is 5.2.
As for `C[C@H](c1c[nH]cn1)c1cc(F)cc2c1C=CC2` [Compound 11-b, 4-[(1S)-1-(6-fluoro-1H-inden-4-yl)ethyl]-1H-imidazole], the Ki at α2A receptor stood at 211 nM. Further, at α2A adrenoceptor, the EC50 was 9.18 nM, the “agonistic activity on the α2A receptor” value was “comparable”, the “agonistic activity α1A/2A” value is recorded as “comparable” and the “Function α1A/2A” value is listed as 4.0.
Take `CC(c1c[nH]cn1)c1cccc2c1C=CC2(C)C` (centres unmarked) [Compound 17, 4-[1-(1,1-Dimethyl-1H-inden-4-yl)ethyl]-1H-imidazole]: the Ki on α2A receptor was found to be 143 nM. On α2A adrenoceptor, the EC50 came to 32 nM, the “agonistic activity α1A/2A” value is “comparable” and the “Function α1A/2A” value was 3.2.
As to `C[C@H](c1c[nH]cn1)c1cccc2c1CCC2` [Compound 31-b, (S)-4-[1-(2,3-dihydro-1H-inden-4-yl)ethyl]-1H-imidazole], the Ki on α2A receptor stood at 23.5 nM. On α2A adrenoceptor, the EC50 was 4.46 nM, the “agonistic activity on the α2A receptor” value is reported as “comparable”, the “agonistic activity α1A/2A” value is on record as “comparable” and the “Function α1A/2A” value is recorded as 1.8.
At α2A receptor, `CC1Cc2cccc(C(C)c3c[nH]cn3)c2O1` (centres unmarked) [Compound 32, 4-[1-(2-Methyl-2,3-dihydrobenzofuran-7-yl)ethyl]-1H-imidazole] returned a Ki of 4.94 nM. For the same compound, on α2A adrenoceptor, the EC50 was 353 nM and the “Function α1A/2A” value is on record as 0.0.
On to `C[C@H](c1c[nH]cn1)c1cc(F)cc2c1C(=O)CC2` [Compound 38-b, (S)-7-(1-(1H-imidazol-4-yl)ethyl)-5-fluoro-2,3-dihydro-1H-inden-1-one], for which the Ki at α2A receptor (setting [1]) is 701 nM. Moreover, on α2A adrenoceptor (setting [2]), the EC50 is 13.2 nM. Besides, the “Function α1A/2A” value at α2A adrenoceptor worked out at 0.7.
